# Reference: ChEMBL document CHEMBL6127063, “N-substituted-4-(pyridin-4-ylalkyl)piperazine-1-carboxamides and related compounds as Leishmania CYP51 and CYP5122A1 inhibitors” (Bioorg Med Chem, 2024)
# The source made the active and inactive calls. No cut-off for these calls is given here.
# Key:
# Leishmania donovani [1] = assay: Antileishmanial activity against Leishmania donovani LV82 promastigotes assessed as inhibition of parasite proliferation; assay type: functional, organism-based
# Leishmania major [2] = assay: Effect on Zymosterol level in Leishmania major LV39 promastigotes assessed as fold change at 25 uM incubated for 48 hrs by LC-MS/MS analysis; assay type: functional
# Leishmania major [3] = assay: Effect on Ergosta-5,7-dienol level in Leishmania major LV39 promastigotes assessed as fold change at 25 uM incubated for 48 hrs by LC-MS/MS analysis; assay type: functional
# Leishmania major [4] = assay: Effect on 4-Methylzymosterol level in Leishmania major LV39 promastigotes assessed as fold change at 25 uM incubated for 48 hrs by LC-MS/MS analysis; assay type: functional
# Leishmania major [5] = assay: Effect on Ergosterol level in Leishmania major LV39 promastigotes assessed as fold change at 25 uM incubated for 48 hrs by LC-MS/MS analysis; assay type: functional
# Leishmania major [6] = assay: Effect on Cholesterol level in Leishmania major LV39 promastigotes assessed as fold change at 25 uM incubated for 48 hrs by LC-MS/MS analysis; assay type: functional
# Leishmania major [7] = assay: Effect on 4,14-Dimethylzymosterol level in Leishmania major LV39 promastigotes assessed as fold change at 25 uM incubated for 48 hrs by LC-MS/MS analysis; assay type: functional
# Leishmania major [8] = assay: Effect on 5-Dehydroepisterol level in Leishmania major LV39 promastigotes assessed as fold change at 25 uM incubated for 48 hrs by LC-MS/MS analysis; assay type: functional
# Leishmania major [9] = assay: Effect on 4-CH2OH-LS sterol level in Leishmania major LV39 promastigotes assessed as fold change at 25 uM incubated for 48 hrs by LC-MS/MS analysis; assay type: functional
# Leishmania major [10] = assay: Effect on 14-Methylfecosterol level in Leishmania major LV39 promastigotes assessed as fold change at 25 uM incubated for 48 hrs by LC-MS/MS analysis; assay type: functional
# Leishmania major [11] = assay: Effect on Fecosterol level in Leishmania major LV39 promastigotes assessed as fold change at 25 uM incubated for 48 hrs by LC-MS/MS analysis; assay type: functional
# Leishmania major [12] = assay: Effect on Episterol level in Leishmania major LV39 promastigotes assessed as fold change at 25 uM incubated for 48 hrs by LC-MS/MS analysis; assay type: functional
# Leishmania major [13] = assay: Effect on lanosterol level in Leishmania major LV39 promastigotes assessed as fold change at 25 uM incubated for 48 hrs by LC-MS/MS analysis; assay type: functional
# Leishmania major [14] = assay: Effect on Ergostatetraenol level in Leishmania major LV39 promastigotes assessed as fold change at 25 uM incubated for 48 hrs by LC-MS/MS analysis; assay type: functional
# Leishmania major [15] = assay: Effect on Cholesta-7,24-dienol level in Leishmania major LV39 promastigotes assessed as fold change at 25 uM incubated for 48 hrs by LC-MS/MS analysis; assay type: functional
# Leishmania major [16] = assay: Effect on 7-Dehydrodesmosterol level in Leishmania major LV39 promastigotes assessed as fold change at 25 uM incubated for 48 hrs by LC-MS/MS analysis; assay type: functional
# Leishmania major [17] = assay: Effect on 14-methylzymosterol level in Leishmania major LV39 promastigotes assessed as fold change at 25 uM incubated for 48 hrs by LC-MS/MS analysis; assay type: functional
# [18] = Inhibition of full length his-tagged recombinant Leishmania donovani CYP51-32c
# Leishmania donovani [19] = assay: Antileishmanial activity against Leishmania donovani promastigotes infected in mouse J774 cells assessed as inhibition of parasite proliferation; assay type: functional, organism-based
# Leishmania donovani [20] = assay: Antileishmanial activity against Leishmania donovani LV82 promastigotes infected in female mouse Peritoneal macrophage cells incubated for 72 hrs by DAPI staining based analysis; assay type: functional, organism-based
# Leishmania major [21] = assay: Effect on 4-Methylzymosterol level in Leishmania major LV39 promastigotes assessed as fold change at 17 uM incubated for 48 hrs by LC-MS/MS analysis; assay type: functional
# Leishmania major [22] = assay: Effect on 7-Dehydrodesmosterol level in Leishmania major LV39 promastigotes assessed as fold change at 17 uM incubated for 48 hrs by LC-MS/MS analysis; assay type: functional
# Leishmania major [23] = assay: Effect on 4,14-Dimethylzymosterol level in Leishmania major LV39 promastigotes assessed as fold change at 17 uM incubated for 48 hrs by LC-MS/MS analysis; assay type: functional
# Leishmania major [24] = assay: Effect on Ergosterol level in Leishmania major LV39 promastigotes assessed as fold change at 17 uM incubated for 48 hrs by LC-MS/MS analysis; assay type: functional
# Leishmania major [25] = assay: Effect on Ergostatetraenol level in Leishmania major LV39 promastigotes assessed as fold change at 17 uM incubated for 48 hrs by LC-MS/MS analysis; assay type: functional
# Leishmania major [26] = assay: Effect on lanosterol level in Leishmania major LV39 promastigotes assessed as fold change at 17 uM incubated for 48 hrs by LC-MS/MS analysis; assay type: functional
# Leishmania major [27] = assay: Effect on Cholesta-7,24-dienol level in Leishmania major LV39 promastigotes assessed as fold change at 17 uM incubated for 48 hrs by LC-MS/MS analysis; assay type: functional
# Leishmania major [28] = assay: Effect on Zymosterol level in Leishmania major LV39 promastigotes assessed as fold change at 17 uM incubated for 48 hrs by LC-MS/MS analysis; assay type: functional
# Leishmania major [29] = assay: Effect on Cholesterol level in Leishmania major LV39 promastigotes assessed as fold change at 17 uM incubated for 48 hrs by LC-MS/MS analysis; assay type: functional
# Leishmania major [30] = assay: Effect on 5-Dehydroepisterol level in Leishmania major LV39 promastigotes assessed as fold change at 17 uM incubated for 48 hrs by LC-MS/MS analysis; assay type: functional
# Leishmania major [31] = assay: Effect on Fecosterol level in Leishmania major LV39 promastigotes assessed as fold change at 17 uM incubated for 48 hrs by LC-MS/MS analysis; assay type: functional
# Leishmania major [32] = assay: Effect on Ergosta-5,7-dienol level in Leishmania major LV39 promastigotes assessed as fold change at 17 uM incubated for 48 hrs by LC-MS/MS analysis; assay type: functional
# Leishmania major [33] = assay: Effect on 14-methylzymosterol level in Leishmania major LV39 promastigotes assessed as fold change at 17 uM incubated for 48 hrs by LC-MS/MS analysis; assay type: functional
# Leishmania major [34] = assay: Effect on Episterol level in Leishmania major LV39 promastigotes assessed as fold change at 17 uM incubated for 48 hrs by LC-MS/MS analysis; assay type: functional
# Leishmania major [35] = assay: Effect on 4-CH2OH-LS sterol level in Leishmania major LV39 promastigotes assessed as fold change at 17 uM incubated for 48 hrs by LC-MS/MS analysis; assay type: functional
# Leishmania donovani [36] = assay: Antileishmanial activity against Leishmania donovani overexpressing CYP5122A1 at 1.2 to […]; assay type: functional, organism-based; details: dose 1.2-3.7 µM
# Leishmania major [37] = assay: Effect on 4-CH2OH-LS sterol level in Leishmania major LV39 promastigotes assessed as fold change at 2 uM incubated for 48 hrs by LC-MS/MS analysis; assay type: functional
# Leishmania major [38] = assay: Effect on 14-Methylfecosterol level in Leishmania major LV39 promastigotes assessed as fold change at 2 uM incubated for 48 hrs by LC-MS/MS analysis; assay type: functional
# Leishmania major [39] = assay: Effect on 4,14-Dimethylzymosterol level in Leishmania major LV39 promastigotes assessed as fold change at 2 uM incubated for 48 hrs by LC-MS/MS analysis; assay type: functional
# Leishmania major [40] = assay: Effect on 5-Dehydroepisterol level in Leishmania major LV39 promastigotes assessed as fold change at 2 uM incubated for 48 hrs by LC-MS/MS analysis; assay type: functional
# Leishmania major [41] = assay: Effect on Cholesterol level in Leishmania major LV39 promastigotes assessed as fold change at 2 uM incubated for 48 hrs by LC-MS/MS analysis; assay type: functional
# Leishmania major [42] = assay: Effect on Ergosta-5,7-dienol level in Leishmania major LV39 promastigotes assessed as fold change at 2 uM incubated for 48 hrs by LC-MS/MS analysis; assay type: functional
# Leishmania major [43] = assay: Effect on 14-methylzymosterol level in Leishmania major LV39 promastigotes assessed as fold change at 2 uM incubated for 48 hrs by LC-MS/MS analysis; assay type: functional
# Leishmania major [44] = assay: Effect on lanosterol level in Leishmania major LV39 promastigotes assessed as fold change at 2 uM incubated for 48 hrs by LC-MS/MS analysis; assay type: functional
# Leishmania major [45] = assay: Effect on Ergosterol level in Leishmania major LV39 promastigotes assessed as fold change at 2 uM incubated for 48 hrs by LC-MS/MS analysis; assay type: functional
compound,measurement,setting,value
O=C(Nc1ccc(F)cc1)N1CCN(Cc2ccncc2)CC1,EC50,Leishmania donovani [1],> 100 µM
OC(Cn1cncn1)(Cn1cncn1)c1ccc(F)cc1F [FLUCONAZOLE],fold change (FC),Leishmania major [2],0.39
same,fold change (FC),Leishmania major [3],0.17
same,fold change (FC),Leishmania major [4],0.6
same,fold change (FC),Leishmania major [5],0.31
same,fold change (FC),Leishmania major [6],0.53
same,fold change (FC),Leishmania major [7],1.8
same,fold change (FC),Leishmania major [8],0.25
same,fold change (FC),Leishmania major [9],0.42
same,fold change (FC),Leishmania major [10],229
same,fold change (FC),Leishmania major [11],0.6
same,fold change (FC),Leishmania major [12],0.6
same,fold change (FC),Leishmania major [13],0.47
same,fold change (FC),Leishmania major [14],0.37
same,fold change (FC),Leishmania major [15],0.38
same,fold change (FC),Leishmania major [16],0.044
same,fold change (FC),Leishmania major [17],4.5
O=C(Nc1ccccc1Cl)N1CCN(Cc2ccncc2)CC1,EC50,Leishmania donovani [1],> 100 µM
O=C(Nc1ccc(OCc2ccccc2)cc1)N1CCN(CCc2ccncc2)CC1,EC50,Leishmania donovani [1],> 100 µM
O=C(Nc1ccc(OCc2cc(C(F)(F)F)cc(C(F)(F)F)c2)cc1)N1CCN(CCc2ccccc2)CC1,EC50,Leishmania donovani [1],> 13 µM
same,IC50,[18],> 100 µM
CC(C)Oc1cccc(NC(=O)N2CCN(Cc3ccncc3)CC2)c1,EC50,Leishmania donovani [1],> 50 µM
O=C(Nc1ccc(OCc2cc(C(F)(F)F)cc(C(F)(F)F)c2)cc1)N1CCN(CCCc2ccccc2)CC1,EC50,Leishmania donovani [1],> 50 µM
Cc1cccc(NC(=O)N2CCN(Cc3ccncc3)CC2)c1,EC50,Leishmania donovani [1],> 100 µM
O=C(Nc1cc(F)cc(F)c1)N1CCN(Cc2ccncc2)CC1,EC50,Leishmania donovani [1],> 100 µM
Cc1cc(C)cc(NC(=O)N2CCN(Cc3ccncc3)CC2)c1,EC50,Leishmania donovani [1],> 50 µM
O=C(Nc1ccccc1)N1CCN(Cc2ccncc2)CC1,EC50,Leishmania donovani [1],> 100 µM
CC(C)(C)c1cccc(NC(=O)N2CCN(Cc3ccncc3)CC2)c1,EC50,Leishmania donovani [19],> 50 µM
same,EC50,Leishmania donovani [20],> 50 µM
O=C(Nc1ccc(Cl)cc1)N1CCN(Cc2ccncc2)CC1,EC50,Leishmania donovani [1],> 100 µM
COc1ccc(NC(=O)N2CCN(Cc3ccncc3)CC2)cc1,EC50,Leishmania donovani [1],> 100 µM
O=C(Nc1cccc(F)c1)N1CCN(Cc2ccncc2)CC1,EC50,Leishmania donovani [1],> 100 µM
O=C(Nc1cccc(Cl)c1)N1CCN(Cc2ccncc2)CC1,EC50,Leishmania donovani [1],> 100 µM
O=C(Nc1ccc(OCc2cc(C(F)(F)F)cc(C(F)(F)F)c2)cc1)N1CCN(CCn2ccnc2)CC1,fold change (FC),Leishmania major [21],3.2
same,fold change (FC),Leishmania major [22],0.95
same,fold change (FC),Leishmania major [23],1
same,fold change (FC),Leishmania major [24],0.42
same,fold change (FC),Leishmania major [25],2.4
same,fold change (FC),Leishmania major [26],31
same,fold change (FC),Leishmania major [27],3.3
same,fold change (FC),Leishmania major [28],3.4
same,fold change (FC),Leishmania major [29],1.9
same,fold change (FC),Leishmania major [30],0.69
same,fold change (FC),Leishmania major [31],3.2
same,fold change (FC),Leishmania major [32],0.16
same,fold change (FC),Leishmania major [33],0.48
same,fold change (FC),Leishmania major [34],3.2
same,fold change (FC),Leishmania major [35],1.6
O=C(Nc1ccc(OCc2cc(C(F)(F)F)cc(C(F)(F)F)c2)cc1)N1CCN(CCc2ccncc2)CC1,Activity,Leishmania donovani [36],Active
CC[C@@H]([C@H](C)O)n1ncn(-c2ccc(N3CCN(c4ccc(OC[C@@H]5CO[C@@](Cn6cncn6)(c6ccc(F)cc6F)C5)cc4)CC3)cc2)c1=O [POSACONAZOLE],fold change (FC),Leishmania major [37],1.4
same,fold change (FC),Leishmania major [38],321
same,fold change (FC),Leishmania major [39],10
same,fold change (FC),Leishmania major [40],0.02
same,fold change (FC),Leishmania major [41],1.3
same,fold change (FC),Leishmania major [42],0.022
same,fold change (FC),Leishmania major [43],3.1
same,fold change (FC),Leishmania major [44],3.6
same,fold change (FC),Leishmania major [45],0.027
COc1cccc(NC(=O)N2CCN(Cc3ccncc3)CC2)c1,EC50,Leishmania donovani [1],> 100 µM
O=C(Nc1cc(C(F)(F)F)cc(C(F)(F)F)c1)N1CCN(Cc2ccncc2)CC1,EC50,Leishmania donovani [20],> 50 µM
Cc1ccccc1NC(=O)N1CCN(Cc2ccncc2)CC1,EC50,Leishmania donovani [1],> 100 µM
O=C(Nc1ccc(C(F)(F)F)cc1)N1CCN(Cc2ccncc2)CC1,EC50,Leishmania donovani [1],> 50 µM
Cc1ccc(NC(=O)N2CCN(Cc3ccncc3)CC2)cc1,EC50,Leishmania donovani [1],> 100 µM
O=C(Nc1ccc(OCc2cc(C(F)(F)F)cc(C(F)(F)F)c2)cc1)N1CCN(CCn2cncn2)CC1,EC50,Leishmania donovani [19],> 50 µM
same,EC50,Leishmania donovani [1],> 50 µM
COc1cc(NC(=O)N2CCN(Cc3ccncc3)CC2)cc(OC)c1,EC50,Leishmania donovani [1],> 100 µM
Cc1cc(NC(=O)N2CCN(Cc3ccncc3)CC2)cc(C)c1C,EC50,Leishmania donovani [1],> 50 µM
